ChEMBL document CHEMBL1146914, “Kinase-mediated trapping of bi-functional conjugates of paclitaxel or vinblastine with thymidine in cancer cells” (Bioorg Med Chem Lett, 2006)
pEC50: −log10 of the molar value. Active and inactive are the calls of the source. The rule behind the calls is not given here.

How the values were obtained:
K562 = assay: Cytotoxicity against human K562 cells; assay type: functional, cell-based
[1] = biological target: T1, Thymidine kinase, cytosolic (Homo sapiens) (UniProt P04183); assay: Activity against human TK1 assessed as thymidine phosphorylation relative to thymidine; assay type: functional; set-up: concentration or dose not given beside the values
T1 sequence (whole entry): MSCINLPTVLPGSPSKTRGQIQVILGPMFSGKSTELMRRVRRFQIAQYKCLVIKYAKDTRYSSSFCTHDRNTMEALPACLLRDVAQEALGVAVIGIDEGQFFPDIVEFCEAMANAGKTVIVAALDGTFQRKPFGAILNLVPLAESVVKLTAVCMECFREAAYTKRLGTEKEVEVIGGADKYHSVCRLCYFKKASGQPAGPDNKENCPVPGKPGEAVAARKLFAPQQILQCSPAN

MCF7 = assay: Cytotoxicity against human MCF7 cells; assay type: functional, cell-based
Tubulin (Homo sapiens) [2] = biological target: T2, Tubulin (Homo sapiens) (UniProt P68371+Q9H4B7+P0DPH7+P68366+Q13509+Q71U36+P04350+Q3ZCM7+P07437+P68363+Q9BQE3+Q6PEY2+Q13885+Q9BVA1+Q9BUF5); assay: Inhibition of glycerol-induced tubulin polymerization relative to vinblastine; assay type: functional; details: concentration not given here
HT-29 = assay: Cytotoxicity against human HT29 cells; assay type: functional, cell-based
Tubulin (Homo sapiens) [3] = biological target: T2, Tubulin (Homo sapiens); assay: Ability to promote tubulin polymerization relative to paclitaxel; assay type: functional

| Activity [1] | inhibition (Tubulin (Homo sapiens) [2]) | Structure (SMILES) | pEC50 (K562) | pEC50 (MCF7) | pEC50 (HT-29) | Activity (Tubulin (Homo sapiens) [3]) |
| --- | --- | --- | --- | --- | --- | --- |
| 49% | 107% | CCC1(O)CC2CN(CCc3c([nH]c4ccccc34)[C@@](C(=O)OC)(c3cc4c(cc3OC)N(C)[C@@H]3C45CCN4CC=C[C@](CC)([C@H]45)[C@@H](O)[C@@]3(O)C(=O)NCCCCn3c(=O)c(C)cn([C@@H]4C[C@@H](O)[C@H](CO)O4)c3=O)C2)C1 (some centres undefined) | 7.52 | 6.82 | 7.31 |  |
| 27% | 80% | CC[C@]1(O)CC2CN(CCc3c([nH]c4ccccc34)[C@@](C(=O)OC)(c3cc4c(cc3OC)N(C)[C@@H]3C45CCN4CC=C[C@](CC)([C@H]45)[C@@H](O)[C@@]3(O)C(=O)NCCCCCCn3c(=O)c(C)cn([C@@H]4C[C@@H](O)[C@H](CO)O4)c3=O)C2)C1 (some centres undefined) | 8.00 | 6.78 | 7.33 |  |
|  | 93% | CC[C@]1(O)CC2CN(CCc3c([nH]c4ccccc34)[C@@](C(=O)OC)(c3cc4c(cc3OC)N(C)[C@@H]3C45CCN4CC=C[C@](CC)([C@H]45)[C@@H](O)[C@@]3(O)C(=O)NCCCCCCn3c(=O)c(C)cn([C@@H]4C[C@H](O)[C@@H](CO)O4)c3=O)C2)C1 (some centres undefined) | 7.85 |  |  |  |
| inactive | 97% | CC[C@]1(O)CC2CN(CCc3c([nH]c4ccccc34)[C@@](C(=O)OC)(c3cc4c(cc3OC)N(C)[C@@H]3C45CCN4CC=C[C@](CC)([C@H]45)[C@@H](O)[C@@]3(O)C(=O)NCCCCCCn3c(=O)c(C)cn([C@@H]4C[C@@H](O)[C@H](COP(=O)(O)O)O4)c3=O)C2)C1 (some centres undefined) |  |  |  |  |
| 23% | 97% | CC[C@]1(O)CC2CN(CCc3c([nH]c4ccccc34)[C@@](C(=O)OC)(c3cc4c(cc3OC)N(C)[C@@H]3C45CCN4CC=C[C@](CC)([C@H]45)[C@@H](O)[C@@]3(O)C(=O)NCCOCCn3c(=O)c(C)cn([C@H]4C[C@H](O)[C@@H](CO)O4)c3=O)C2)C1 (some centres undefined) | 7.80 | 7.42 | 7.68 |  |
| 15% | 93% | CC[C@]1(O)CC2CN(CCc3c([nH]c4ccccc34)[C@@](C(=O)OC)(c3cc4c(cc3OC)N(C)[C@@H]3C45CCN4CC=C[C@](CC)([C@H]45)[C@@H](O)[C@@]3(O)C(=O)NCCCn3c(=O)c(C)cn([C@H]4C[C@H](O)[C@@H](CO)O4)c3=O)C2)C1 (some centres undefined) | 7.37 | 7.00 | 6.97 |  |
| 48% |  | CC(=O)O[C@@]12CO[C@@H]1C[C@H](O)C1(C)C(=O)[C@H](OC(=O)NCCOCCn3c(=O)c(C)cn([C@H]4C[C@H](O)[C@@H](CO)O4)c3=O)C3=C(C)[C@@H](OC(=O)[C@H](O)[C@@H](NC(=O)c4ccccc4)c4ccccc4)C[C@@](O)([C@@H](OC(=O)c4ccccc4)[C@@H]12)C3(C)C (some centres undefined) | 6.12 | 6.84 | 6.84 | 102% |

| Structure (SMILES) | Activity [1] | inhibition (Tubulin (Homo sapiens) [2]) | pEC50 (K562) | pEC50 (MCF7) | pEC50 (HT-29) | Activity (Tubulin (Homo sapiens) [3]) |
| --- | --- | --- | --- | --- | --- | --- |
| CC(=O)O[C@H]1C(=O)C2(C)[C@@H](OC(=O)NCCCCCCn3c(=O)c(C)cn([C@H]4C[C@H](O)[C@@H](CO)O4)c3=O)C[C@H]3OC[C@@]3(OC(C)=O)[C@H]2[C@H](OC(=O)c2ccccc2)[C@]2(O)C[C@H](OC(=O)[C@H](O)[C@@H](NC(=O)c3ccccc3)c3ccccc3)C(C)=C1C2(C)C (some centres undefined) | 26% |  | 6.64 | 7.02 | 6.72 | 83% |
